EC50 and Kd data for 5 compounds are collected here from patent publication EP0933350A1, “Tricyclic retinoids, methods for their production and use” (LIGAND PHARMACEUTICALS INCORPORATED, priority 1994, dated 1996).

In experiment [1] the target is T1, RARα (Homo sapiens, UniProt P10276).
T1 sequence (P10276 1-462): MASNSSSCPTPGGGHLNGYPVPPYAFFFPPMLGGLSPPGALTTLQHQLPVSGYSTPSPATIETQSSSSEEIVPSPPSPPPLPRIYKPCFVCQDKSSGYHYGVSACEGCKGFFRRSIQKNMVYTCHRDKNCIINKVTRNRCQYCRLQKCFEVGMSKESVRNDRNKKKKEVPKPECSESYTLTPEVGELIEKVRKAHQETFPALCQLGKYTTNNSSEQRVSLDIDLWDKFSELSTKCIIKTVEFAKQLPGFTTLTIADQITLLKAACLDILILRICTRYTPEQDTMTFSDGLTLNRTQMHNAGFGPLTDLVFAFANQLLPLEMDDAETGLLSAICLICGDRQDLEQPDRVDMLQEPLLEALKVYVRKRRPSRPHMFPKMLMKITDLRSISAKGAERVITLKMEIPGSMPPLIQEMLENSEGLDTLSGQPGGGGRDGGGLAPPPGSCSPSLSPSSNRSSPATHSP
As to the kind of experiment: co-transfection assay (RAR/RXR agonist activity, luciferase reporter in CV-1 cells). Format: cell-based. Particulars: read-out: RARα Pot. (A reporter such as luciferase makes a cellular process visible.)

Experiment [2] has as its target T2, RXRγ (Mus musculus, UniProt P28705).
T2 sequence (P28705 1-463): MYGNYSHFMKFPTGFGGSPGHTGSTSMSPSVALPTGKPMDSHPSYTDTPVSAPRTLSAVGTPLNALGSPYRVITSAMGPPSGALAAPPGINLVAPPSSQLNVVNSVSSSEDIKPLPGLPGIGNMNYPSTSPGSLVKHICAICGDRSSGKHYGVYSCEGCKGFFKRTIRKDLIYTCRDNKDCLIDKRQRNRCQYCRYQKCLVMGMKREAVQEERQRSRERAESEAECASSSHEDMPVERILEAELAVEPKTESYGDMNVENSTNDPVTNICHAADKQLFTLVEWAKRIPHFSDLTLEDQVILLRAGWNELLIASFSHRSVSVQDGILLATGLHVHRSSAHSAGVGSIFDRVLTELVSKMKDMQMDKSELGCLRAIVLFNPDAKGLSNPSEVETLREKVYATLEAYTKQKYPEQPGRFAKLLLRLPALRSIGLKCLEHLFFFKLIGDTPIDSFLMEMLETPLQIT
Kind of experiment: competitive binding of tritiated retinoids to retinoid receptors. The settings on record: competition with tritiated retinoid, Cheng-Prussof equation.

In experiment [3] the target is T2, RXRγ. Kind of experiment: co-transfection assay (RAR/RXR agonist activity, luciferase reporter in CV-1 cells). It is filed as cell-based. Particulars: read-out: RXRγ Pot.
The target in another experiment is T3, RARβ (Homo sapiens, UniProt P10826).
T3 sequence (P10826 1-448 isoform P10826-2): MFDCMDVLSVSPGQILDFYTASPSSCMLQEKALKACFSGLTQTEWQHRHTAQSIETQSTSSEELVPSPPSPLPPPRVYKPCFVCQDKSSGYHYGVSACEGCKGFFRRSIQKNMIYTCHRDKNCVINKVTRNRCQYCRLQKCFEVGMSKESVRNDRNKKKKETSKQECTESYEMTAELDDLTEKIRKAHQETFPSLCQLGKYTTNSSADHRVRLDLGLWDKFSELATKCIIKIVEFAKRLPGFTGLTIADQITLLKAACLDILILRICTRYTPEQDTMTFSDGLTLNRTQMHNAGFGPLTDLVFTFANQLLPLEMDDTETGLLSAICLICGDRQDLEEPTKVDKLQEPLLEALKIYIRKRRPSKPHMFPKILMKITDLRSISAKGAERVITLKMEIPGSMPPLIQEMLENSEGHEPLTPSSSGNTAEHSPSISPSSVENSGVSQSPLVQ
The description is as above. It is filed as cell-based. Particulars: potency = EC50, agonist, 40 hours, read-out: RARβ Pot.

A further experiment has as its target T4, RXRβ (Mus musculus, UniProt P28704).
T4 sequence (P28704 1-520): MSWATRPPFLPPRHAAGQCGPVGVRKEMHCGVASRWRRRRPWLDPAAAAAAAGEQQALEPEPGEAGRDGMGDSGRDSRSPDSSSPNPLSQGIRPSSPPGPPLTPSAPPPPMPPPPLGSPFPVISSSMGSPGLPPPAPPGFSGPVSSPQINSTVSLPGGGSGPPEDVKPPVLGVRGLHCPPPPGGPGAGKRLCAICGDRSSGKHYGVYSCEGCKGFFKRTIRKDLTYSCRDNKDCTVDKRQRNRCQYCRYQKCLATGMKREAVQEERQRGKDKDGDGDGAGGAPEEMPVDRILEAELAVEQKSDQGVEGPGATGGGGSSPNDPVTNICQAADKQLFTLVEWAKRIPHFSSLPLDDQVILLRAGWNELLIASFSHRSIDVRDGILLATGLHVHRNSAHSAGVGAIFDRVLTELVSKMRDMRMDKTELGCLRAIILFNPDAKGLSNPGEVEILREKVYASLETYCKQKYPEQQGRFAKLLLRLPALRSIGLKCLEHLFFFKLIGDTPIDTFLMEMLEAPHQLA
As to the kind of experiment: competitive binding of tritiated retinoids to retinoid receptors. Particulars: competition with tritiated retinoid, Cheng-Prussof equation.

Experiment [4] deals with T1, RARα. Described as above. The settings on record: competition with tritiated retinoid, Cheng-Prussof equation.

A value given as a limit tells only on which side of the number the result lay.

The term Kd denotes the concentration at which binding is half-saturated. A higher Kd goes with lower affinity. As to `CC(/C=C/C=C1\CCOc2cc3c(cc21)C(C)(C)CCC3(C)C)=C\C(=O)O` [Compound 119b, (2E,4E)-3-Methyl-6-[(E)-2,3,6,7,8,9-hexahydro-6,6,9,9-tetramethylbenzo[g]chromen-4-ylidene]hexa-2,4-dienoic acid], the results for the EC50 at RARα [1], at RXRγ [3] and at RARβ were 20 nM, 742 nM and 1 nM, respectively. Moreover, the dissociation constant (Kd) on RXRγ [2] is 398 nM; on RXRβ, 372 nM; at RARα [4] it was 24 nM.
As for `CC(/C=C/CN1CCCCc2cc3c(cc21)C(C)(C)CCC3(C)C)=C\C(=O)O` [Compound 138b, (2E,4E)-3-Methyl-6-[7,7,10,10-tetramethyl-2,3,4,5,7,8,9,10-octahydronaphtho[2,3-6]azepinyl)hexa-2,4-dienoic acid], the EC50 at RARα [1] was greater than 10000 nM; at RXRγ [3], 301 nM; at RARβ, greater than 10000 nM. For the same compound, the dissociation constant Kd on RXRγ [2] is 508 nM; on RXRβ, 276 nM; at RARα [4], greater than 1000 nM.
For the compound `CC(/C=C/C=C1\CCCc2cc3c(cc21)C(C)(C)CCC3(C)C)=C\C(=O)O` [Compound 109b, (2E,4E)-3-Methyl-6-[(E)-3,4,5,6,7,8-hexahydro-5,5,8,8-tetramethyl-2H-anthracen-1-ylidene]hexa-2,4-dienoic acid], the EC50 on RARα [1] turned out to be 28 nM; at RXRγ [3], 2270 nM; on RARβ, 3 nM. For the same compound, the Kd at RXRγ [2] is 382 nM; on RXRβ, 332 nM; at RARα [4], 33 nM.
Take `CC(/C=C/C=C1/CCCc2cc3c(cc21)C(C)(C)CCC3(C)C)=C\C(=O)O` [Compound 101b, (2E,4E)-3-Methyl-6-[(Z)-3,4,5,6,7,8-hexahydro-5,5,8,8-tetramethyl-2H-anthracen-1-ylidene]hexa-2,4-dienoic acid]: the EC50 on RARα [1] stood at 32 nM; on RXRγ [3] it was 41 nM; at RARβ, 8 nM. Moreover, the results for the Kd on RXRγ [2], on RXRβ and at RARα [4] were 48 nM, 30 nM and 225 nM, respectively.
Consider `CC(/C=C/C=C1/CCOc2cc3c(cc21)C(C)(C)CCC3(C)C)=C\C(=O)O` [Compound 144b], for which the EC50 came out at 14 nM on RARα [1], 40 nM on RXRγ [3] and 3 nM on RARβ. Also, the Kd at RXRγ [2] stood at 85 nM; at RXRβ, 146 nM; at RARα [4] it was 145 nM.
